Source: patent US20210318315A1, “ULTRA-HIGH-THROUGHPUT MICROFLUIDIC ENZYME SCREENING PLATFORM FOR ENZYME DEVELOPMENT” (National University of Singapore, priority 2020, published 2021)

Columns and labels:
[1] = test system: fluorescent protein-based NAD^+ biosensor (fluorescent core domain and bipartite NAD^+ binding domain); experiment: NAD^+ detection with fluorescent protein biosensor in microdroplets (fluorescence quenching by NAD^+ binding); assay type: biochemical; settings: 1 mM of NAD^+, excitation at 488 nm, emission at 520 nm
From the text: In some embodiments, the detection reagent comprises a biosensor, such as a protein biosensor, as one non-limiting example of a biosensor. The biosensor may be configured to react with the cofactor (or a redox couple of the cofactor) to generate (or quench) a luminescent signal. The generation (or quenching) of the luminescent signal may be used to detect, screen, and/or isolate droplets containing the target enzyme. In one example, the protein biosensor comprises a fluorescent core domain and a bipartite NAD+ and/or NADP+ binding domain. The fluorescent core domain has an excitation at 488 nm and an emission at 520 nm. In the presence of NAD+ and/or NADP+, the fluorescence from the core domain is quenched by binding of the NAD+ and/or NADP+ to the bipartite binding domain.
A fluorescent protein-based NAD^+ biosensor was developed for quantitative detection of NAD^+. […] In this setup, the fluorescence from the core domain was quenched by NAD^+ binding corresponding to the concentration of the bound NAD^+ (FIG. 12A). The biosensor fluorescence intensity and NAD^+ concentration were negatively correlated in the range of 1 to 1000 μM of NAD^+. […] A nearly-linear correlation between the biosensor fluorescence intensity and NAD^+ concentration was shown at range of 50 μM to 1000 μM of NAD^+.

[2] = test system: thiolated DBC1 protein (deleted in breast cancer 1), NAD^+ binding domain linked to CdSe/CdS/CdZnS/ZnS quantum dot; experiment: NAD^+ detection with quantum dot sensor linked to thiolated DBC1 protein (fluorescence quenching); assay type: biochemical; settings: for reduction of fluorescence signal of the sensor: 1.5 μM of sensor, in microfluidics (droplets)
Protocol: (4) Preparation of thiolated DBC1 protein (deleted in breast cancer 1). DBC1 protein was prepared by treated protein with 2-iminothiolane to introduce sulfhydryl residues onto a sulfydril:protein ratio of ˜20. Five mg of DBC1 dissolved in 1 mL of PBS (pH 7.4) was allowed to react with 2 mg of 2-iminothilane.HCl and kept at 4° C. for 2 h with vortex. The resulting solution was filtered through a size-exclusion centrifugal filter device (Micron YM-30, Millipore).
(5) Preparation of DBC1 protein coated QDs. The MPA capped QDs were incubated with thiolated DBC1 protein in HEPES buffer (pH 7.4) for 5 days at 4° C.
Another example for NAD^+ sensing was developed with a quantum dot fluorescence sensor through FRET effect (FIG. 13A). The highly fluorescent CdSe quantum dot core was coated with 3-mercaptopropionic acid and linked to a NAD^+ binding domain (thiolated DBC1 protein sensor). The protein sensor was reported to specifically bind NAD^+. When such binding occurs, the fluorescence of quantum dot was effectively quenched (FIG. 13B). Consequently, the fluorescence signal of the quantum dot sensor was negatively correlated to NAD+ concentration. This allowed accurate determination of NAD^+ based on the change of fluorescence signal.
The performance of the quantum dot NAD^+ sensor was explored. The quantitative NAD^+ quenching was further examined and validated with an excitation at 538 nm and the fluorescence emission is detected at 595 nm. As concentration of NAD^+ increased, the fluorescence of the sensor was quenched at a very low NAD^+ concentration. The sensor enabled the detection of NAD^+ with a detection limit of 30 μM with a sensor concentration of 1.5 μM with a fixed incubation time of 20 minutes. When the NAD^+ concentration reached 250 μM and above, more than 90% fluorescence signal is quenched. […]
For the NAD^+ detection in microfluidics, the fluorescence of 1.5 μM of sensor was examined with different concentration of NAD^+. The fluorescence signal of the sensor reduced ˜25% when incubated with 200 μM NAD^+, and reduced 45% in the presence of 250 μM NAD^+ (FIG. 14A). […]

Structure (SMILES): NC(=O)c1ccc[n+]([C@@H]2O[C@H](COP(=O)([O-])OP(=O)(O)OC[C@H]3O[C@@H](n4cnc5c(N)ncnc54)[C@H](O)[C@@H]3O)[C@@H](O)[C@H]2O)c1 [NAD^+, nicotinamide adenine dinucleotide]
- lower fluorescence signal (quenching by NAD^+) [1]: 21%
- reduction of fluorescence signal of the sensor ([2]; 200 μM NAD^+): ~25%
- reduction of fluorescence signal of the sensor ([2]; 250 μM NAD^+): 45%
- fluorescence signal quenched ([2]; NAD^+ 250 μM and above, sensor 1.5 μM, incubation 20 minutes, excitation at 538 nm, emission at 595 nm): more than 90%
